This note sets out measurements from patent US20110098241A1, “RAPAMYCIN ANALOGS AS ANTI-CANCER AGENTS” (PONIARD PHARMACEUTICALS, INC., priority 2008, published 2011).

pIC50: −log10 of the molar value.

For this assay, the target named is T1, mTOR (UniProt P42346+P62942).
T1 construct: purchased Calbiochem CBA055
T1 sequence (P62942 2-108 limits assumed, other chains not shown): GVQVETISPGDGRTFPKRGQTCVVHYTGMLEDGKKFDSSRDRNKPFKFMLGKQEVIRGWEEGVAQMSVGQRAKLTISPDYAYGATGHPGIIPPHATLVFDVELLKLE
The experiment in a line: mTOR Assay Screening Protocol (K-LISA mTOR Activity Kit, inhibitor with FKBP12). The class given is biochemical. To be noted: mTOR Standard pre-incubated with inhibitor and FKBP12 (35-37 ug/ml); p70S6K-T389 phosphorylation ELISA, absorbance at 450 nm. As to the method:
mTOR Assay Screening Protocol
Kit: Calbiochem Cat. No. CBA055: K-LISA mTOR Activity Kit
The following table provides reagent preparation instructions to obtain the volume of Working Solutions (WS) required for 10 wells. Volumes can be scaled to process more samples and provide overage for pipetting error.
Reagent Volume (per 10-well strip) Composition: mTOR Substrate WS: 1 ml Dilution factor: 1:400 FKBP12: Sigma F5398 FK-Binding Protein human, recombinant, expressed in Escherichia coli
A. Protocol for mTOR Kinase Activity and Inhibitor Screening: 1. Remove the required number of strips from the Glutathione-Coated 96-Well Plate and place them in the 96-well frame. 2. Add 100 μl mTOR Substrate WS to each well and incubate for 1 h at room temperature. 3. When performing inhibitor screening/testing, pre-incubate 50 μl mTOR Standard (from step 2) with test inhibitor or wortmannin in a separate tube on ice for 20 min (for example 50 μl mTOR Standard with 1 μl Woltmannin, 50×). This pre-incubation can be carried out during the incubation in step 2. • For inhibitor testing: weigh out inhibitor and resuspend in DMSO to a concentration of 5 mM prior to addition to assay • Test concentrations for inhibitors in assay ranged from 10 uM-0.0048 uM (final concentrations) • Inhibitor reaction contained: mTOR Standard, inhibitor (at indicated concentration) and FKBP12 (at 35-37 ug/ml) • Dilutions of inhibitors made in TBS • Controls for assay include: mTOR Standard only, mTOR Substrate only (blank), FKBP12+mTOR Standard (no inhibitor), inhibitor compound+mTOR Standard (no FKBP12), 4. Aspirate contents of the wells and wash each well of the Glutathione-Coated 96-Well Plate with 200 μl TBS. Empty the contents of the wells into the sink and dry the wells by tapping the inverted plate on paper towels. Repeat for a total of 3 washes. 5. Add the following components to each well in the specified order: […]
mTOR Standard or mTOR Sample* (diluted to assay range with phosphate-free buffer or water): 50 μl 2× Kinase Assay Buffer WS: 50 μl
*Pre-incubated with inhibitor in step 3 or without inhibitor 6. Cover the plate with the Plate Sealer, mix with a plate shaker or equivalent for 30 seconds, and incubate for 30 minutes at 30° C. 7. Stop the kinase reaction by adding 10 μl Kinase Stop Solution to each well. (Reaction may also be stopped simply by discarding the contents of the wells). 8. Aspirate the contents of each well and wash with 200 μl Plate Wash (1×). Gently agitate the plate using a plate shaker or equivalent for 5 min. Empty the contents of the wells into the sink and dry the wells by tapping the inverted plate on paper towels. Wash the plate 2 more times without shaking the plate. 9. Add 100 μl Anti-p70S6K-T389 WS to each well, cover the plate with the Plate Sealer, and incubate 1 h at room temperature. 10. Wash the plate 4 times as outlined in step 8 without shaking the plate. 11. Add 100 μl HRP-Antibody Conjugate WS to each well, cover the plate with the Plate Sealer, and incubate 1 h at room temperature. 12. Wash the plate as outlined in step 10. 13. Add 100 μl TMB Substrate to each well, cover the plate with the Plate Sealer, and incubate 5-20 min at room temperature. 14. […] 15. Analyze data using Microsoft Excel and GraphPad Prism software.
As to `CO[C@H]1C[C@@H]2CC[C@@H](C)[C@@](O)(O2)C(=O)C(=O)N2CCCC[C@H]2C(=O)O[C@H]([C@H](C)C[C@@H]2CC[C@@H](OC(=O)NS(=O)(=O)N3CCOCC3)[C@H](OC)C2)CC(=O)[C@H](C)/C=C(\C)[C@@H](O)[C@@H](OC)C(=O)[C@H](C)C[C@H](C)/C=C/C=C/C=C/1C` [Example 1, 42-O-[Morpholinosulfonylcarbamyl]-rapamycin], the pIC50 is 8.00.

Consider `CO[C@H]1C[C@@H]2CC[C@@H](C)[C@@](O)(O2)C(=O)C(=O)N2CCCC[C@H]2C(=O)O[C@H]([C@H](C)C[C@@H]2CC[C@@H](OC(=O)NS(=O)(=O)N(C)C)[C@H](OC)C2)CC(=O)[C@H](C)/C=C(\C)[C@@H](O)[C@@H](OC)C(=O)[C@H](C)C[C@H](C)/C=C/C=C/C=C/1C` [Example 2, 42-O-[Dimethylaminosulfonylcarbamyl]-rapamycin], for which the pIC50 is 7.52.

`CO[C@H]1C[C@@H]2CC[C@@H](C)[C@@](O)(O2)C(=O)C(=O)N2CCCC[C@H]2C(=O)O[C@H]([C@H](C)C[C@@H]2CC[C@@H](OC(=O)NS(=O)(=O)N(CCO)CCO)[C@H](OC)C2)CC(=O)[C@H](C)/C=C(\C)[C@@H](O)[C@@H](OC)C(=O)[C@H](C)C[C@H](C)/C=C/C=C/C=C/1C` [Example 3, 42-O—[N,N-Bis(2-hydroxyethyl)aminosulfonylcarbamyl]-rapamycin] showed a pIC50 of 6.96.

`CO[C@H]1C[C@@H]2CC[C@@H](C)[C@@](O)(O2)C(=O)C(=O)N2CCCC[C@H]2C(=O)O[C@H]([C@H](C)C[C@@H]2CC[C@@H](OC(=O)NS(=O)(=O)N3CC[C@@H](O)C3)[C@H](OC)C2)CC(=O)[C@H](C)/C=C(\C)[C@@H](O)[C@@H](OC)C(=O)[C@H](C)C[C@H](C)/C=C/C=C/C=C/1C` [Example 4, 42-O—[(R)-3-hydroxypyrrolidin-1-ylsulfonylcarbamyl]-rapamyein] gave a negative-log IC50 (pIC50) of 8.00.

Turning to `CO[C@H]1C[C@@H]2CC[C@@H](C)[C@@](O)(O2)C(=O)C(=O)N2CCCC[C@H]2C(=O)O[C@H]([C@H](C)C[C@@H]2CC[C@@H](OC(=O)NS(=O)(=O)Nc3ccc(O)cc3)[C@H](OC)C2)CC(=O)[C@H](C)/C=C(\C)[C@@H](O)[C@@H](OC)C(=O)[C@H](C)C[C@H](C)/C=C/C=C/C=C/1C` [Example 5, 42-O-[4-Hydroxyanilinsulfonylcarbamyl]-rapamycin], the pIC50 was 9.00.

For `CO[C@H]1C[C@@H]2CC[C@@H](C)[C@@](O)(O2)C(=O)C(=O)N2CCCC[C@H]2C(=O)O[C@H]([C@H](C)C[C@@H]2CC[C@@H](OC(=O)N3CCN(C)CC3)[C@H](OC)C2)CC(=O)[C@H](C)/C=C(\C)[C@@H](O)[C@@H](OC)C(=O)[C@H](C)C[C@H](C)/C=C/C=C/C=C/1C` [Example 6, 42-O-[4-Methylpiperazine-1-carboxy]-rapamycin], the pIC50 is 5.60.

On to `CO[C@H]1C[C@@H]2CC[C@@H](C)[C@@](O)(O2)C(=O)C(=O)N2CCCC[C@H]2C(=O)O[C@H]([C@H](C)C[C@@H]2CC[C@@H](OC(=O)CN3CCC(O)CC3)[C@H](OC)C2)CC(=O)[C@H](C)/C=C(\C)[C@@H](O)[C@@H](OC)C(=O)[C@H](C)C[C@H](C)/C=C/C=C/C=C/1C` [Example 8, 42-O-[2-(4-Hydroxypiperidin-1-yl)acetyl]-rapamycin], for which the negative-log IC50 (pIC50) was 7.15.

`CO[C@H]1C[C@@H]2CC[C@@H](C)[C@@](O)(O2)C(=O)C(=O)N2CCCC[C@H]2C(=O)O[C@H]([C@H](C)C[C@@H]2CC[C@@H](OC[Si](C)(C)C)[C@H](OC)C2)CC(=O)[C@H](C)/C=C(\C)[C@@H](O)[C@@H](OC)C(=O)[C@H](C)C[C@H](C)/C=C/C=C/C=C/1C` [Example 11, 42-O-[Trimethylsilyl-methyl]-rapamycin] showed a negative-log IC50 (pIC50) of 5.64.

In the case of `CO[C@H]1C[C@@H]2CC[C@@H](C)[C@@](O)(O2)C(=O)C(=O)N2CCCC[C@H]2C(=O)O[C@H]([C@H](C)C[C@@H]2CC[C@@H](OCCOC[Si](C)(C)C)[C@H](OC)C2)CC(=O)[C@H](C)/C=C(\C)[C@@H](O)[C@@H](OC)C(=O)[C@H](C)C[C@H](C)/C=C/C=C/C=C/1C` [Example 12, 42-O-[2-(Trimethylsilan-methoxy)-ethyl]-rapamycin], the pIC50 was 7.52.

As for `CO[C@H]1C[C@@H]2CC[C@@H](C)[C@@](O)(O2)C(=O)C(=O)N2CCCC[C@H]2C(=O)O[C@H]([C@H](C)C[C@@H]2CC[C@@H](OC(=O)CN3CCC(CCO)CC3)[C@H](OC)C2)CC(=O)[C@H](C)/C=C(\C)[C@@H](O)[C@@H](OC)C(=O)[C@H](C)C[C@H](C)/C=C/C=C/C=C/1C` [Example 13, 42-O-[2-(4-(2-Hydroxyethyl)piperidin-1-yl)acetyl]rapamycin], the negative logarithm of the IC50 (pIC50) is 7.15.

`CO[C@H]1C[C@@H]2CC[C@@H](C)[C@@](O)(O2)C(=O)C(=O)N2CCCC[C@H]2C(=O)O[C@H]([C@H](C)C[C@@H]2CC[C@@H](OC(=O)CN(CCO)CCO)[C@H](OC)C2)CC(=O)[C@H](C)/C=C(\C)[C@@H](O)[C@@H](OC)C(=O)[C@H](C)C[C@H](C)/C=C/C=C/C=C/1C` [Example 14, 42-O-[2-(Bis(2-hydroxyethyl)amino)acetyl]-rapamycin] gave a negative logarithm of the IC50 (pIC50) of 6.62.

Molecule `CO[C@H]1C[C@@H]2CC[C@@H](C)[C@@](O)(O2)C(=O)C(=O)N2CCCC[C@H]2C(=O)O[C@H]([C@H](C)C[C@@H]2CC[C@@H](OC(=O)N3CCC(O)CC3)[C@H](OC)C2)CC(=O)[C@H](C)/C=C(\C)[C@@H](O)[C@@H](OC)C(=O)[C@H](C)C[C@H](C)/C=C/C=C/C=C/1C` [Example 15] gave a pIC50 of 6.68.

Take `CO[C@H]1C[C@@H]2CC[C@@H](C)[C@@](O)(O2)C(=O)C(=O)N2CCCC[C@H]2C(=O)O[C@H]([C@H](C)C[C@@H]2CC[C@@H](OC(=O)NCCN3CCOCC3)[C@H](OC)C2)CC(=O)[C@H](C)/C=C(\C)[C@@H](O)[C@@H](OC)C(=O)[C@H](C)C[C@H](C)/C=C/C=C/C=C/1C` [Example 16, 42-O-(2-Morpholinoethylaminocarbonyl)-rapamycin]: the negative-log IC50 (pIC50) was 6.52.

Molecule `CO[C@H]1C[C@@H]2CC[C@@H](C)[C@@](O)(O2)C(=O)C(=O)N2CCCC[C@H]2C(=O)O[C@H]([C@H](C)C[C@@H]2CC[C@@H](OCCCS(=O)(=O)N3CCOCC3)[C@H](OC)C2)CC(=O)[C@H](C)/C=C(\C)[C@@H](O)[C@@H](OC)C(=O)[C@H](C)C[C@H](C)/C=C/C=C/C=C/1C` [Example 17, 42-O-[3-(Morpholinosulfonyl)propyl]-rapamycin] gave a pIC50 of 6.85.
